The values below come from patent US11926640B2, “Prodrugs of glutamine analogs” (THE JOHNS HOPKINS UNIVERSITY, priority 2015, dated 2024).

“Also recorded” adds a separate entry of the source. Like-named read-outs stand apart in the source and are kept apart here.

For one data set, the system named is CT26 colon cancer. Nature of the data set: CT26 tumor model. The format is in vivo, mice. The following applies: single agent.
Another data set has as its system 4T1 tumor cells. Nature of the data set: 4T1 breast cancer model. The format is in vivo, BALB/c mice. The following applies: single agent, about 1 mg/kg daily. The method, then: 4T1 tumor cells (0.1 million) were injected into the mammary fat pads of 8-week-old female BALB/c mice. Mice received vehicle (PBS) or 1 mg/kg compound 25 daily from day 5 to day 22. Photos were taken on day 30 after tumor inoculation (FIG. 57A). Tumor volume was measured 2-3 times weekly until WT mice were sacrificed (when size reached to 20 mm length or necrosis occurred). Day 0: 100K 4T1 cells s.c. in 4th mammary pad. Day 5-22: Daily compound 25.
4T1-Luc tumor cells (0.1 million) were injected into the mammary fat pads of 8-week-old female BALB/c mice. Mice received vehicle (PBS) or 1 mg/kg compound 25 daily from day 7. Anti-PD1 (5 mg/Kg) was administered on day 5, 8, and 12. Mice carrying 4T1-luc tumors are injected with Luciferin to measure luminescence from the tumor. IVIS imaging were taken on day 13.
4T1-Luc tumor cells (0.1 million) were injected into the mammary fat pads of 8-week-old female BALB/c mice. Mice received vehicle (PBS) or 1 mg/kg compound 25 daily from day 7 to day 16. Anti-PD1 (5 mg/Kg) was administered on day 5, 8, 12 and 17. Tumor volume was measured 2-3 times weekly until tumors were evaluated for tumor infiltrating cells on day 21. Tumor weights were measured on day 21. On day 21, the PD1 group tumor size looks like it was reduced, however, the result was not due to a tumor size reduction, but rather because one of the large tumor mice died.

A further data set has as its system MC38 colon cancer. In words: MC38 tumor model. The following applies: single agent. The format is in vivo, mice.
A further data set relates to colon cancer cells. In words: rechallenge of compound 25 treated mice with colon cancer cells. Format: in vivo. The following applies: mice previously treated with single agent.
For data set [1] the following is noted: human microsomes.
The conditions of data set [2]: pig microsomes.
The conditions of data set [3]: mouse, in vivo.
The conditions of data set [4]: mouse, in vivo. This is another data set of the same source.
A further data set relates to EL4 mouse lymphoma. Nature of the data set: EL4 mouse lymphoma model. The following applies: in vivo.
Data set [5] in a line: Cmax, tumor to gut ratio and GI toxicity of 25 vs DON at equimolar doses in mice. The following applies: 0.8 mg/kg (equivalent) daily for 5 days.
A further data set concerns U87 human glioma cells. Nature of the data set: U87 flank xenograft mouse model of GBM. The format is in vivo. The method, then:
Mice Efficacy Studies. All mouse efficacy studies were conducted according to protocol #MO13M69 approved by the Animal Care and Use Committee at Johns Hopkins University. Female athymic (RH-Foxn1nu mice) mice between 25 and 30 g were obtained (Harlan Sprague Dawley Inc. Indianapolis. Indiana), and maintained on a 12 hour light-dark cycle with ad libitum access to food and water. U87 human glioma cells were injected s.c. (5×10^6 cells in […] of PBS) in four separate locations on the flanks of each mouse. When tumors grew to a mean volume of around 200 mm^3, mice were randomized into either vehicle (HEPES-buffered saline, i.p.) or DON (1; 0.8 mg/kg, i.p.). In one cohort, mice were administered a single dose of the appropriate solution two hours after which glutamine levels were quantified in the tumor as described previously (Le et al., 2012). In brief, tumors were harvested, snap frozen, and homogenized in liquid N, then subjected to metabolite extraction using methanol and DI water. Quantification was performed using Agilent 6520 Quadrupole-Time-of-Flight (Q-TOF) mass spectrometer with Agilent 1290 HPLC and using Agilent Mass Hunter and Agilent Qualitative and Quantitative Analysis Software packages. Glutamine content was averaged by group for each individual tumor (n=3-4/group), depicted as relative intensity, and analyzed by one-tailed t test. In a second cohort, efficacy experiments were conducted. Mice were injected once daily for six days; tumor volumes were measured using digital calipers and calculated according to the formula: [volume=(largest tumor dimension)×(smallest tumor dimension)^2×0.52] at 2, 4, and 6 days after the onset of treatment. Each individual tumor (n=8-10/group) was normalized to its pretreatment volume, averaged and analyzed by repeated measures two-way analysis of variance (ANOVA). If significant, a Bonferroni post hoc test was subsequently applied. Significance was defined as p<0.05.

The nature of data set [6]: 5-day i.v. toxicity comparison of DON and 38 in pigs. The format is in vivo.
In another data set the test system is melanoma. Nature of the data set: melanoma growth model. The following applies: in vivo.
Data set [7] in a line: tolerability of daily treatment with DON or 25 in mice.

For the compound `CCOC(=O)[C@H](CCC(=O)C=[N+]=[N-])NC(=O)[C@@H](N)CC(C)C` [Compound 25, Ethyl 2-(2-amino-4-methylpentanamido)-6-diazo-5-oxohexanoate], the “antitumor efficacy in CT26 tumor model (in words)” value in the data set with CT26 colon cancer was “superior to CB-839; also recorded: robust response and improved overall survival”. Also, the “antitumor efficacy in 4T1 breast cancer model (in words)” value with 4T1 tumor cells is “superior to CB-839; also recorded: robust response and improved overall survival; also recorded: inhibited the growth of mammary carcinoma tumor cells; also recorded: inhibits tumor growth”. Moreover, in the data set on MC38 colon cancer, the “antitumor efficacy in MC38 tumor model (in words)” value was “complete and durable response; also recorded: inhibits colon cell proliferation and extends the survival of mice; also recorded: efficacious; also recorded: more efficacious than oxaliplatin”. Also, the “colon cancer cell proliferation upon rechallenge (in words)” value in the data set on colon cancer cells was “prevents colon cancer cell proliferation upon rechallenge”. Also, in data set [1], the “liver microsomal stability (in words)” value was “moderate-high stability”. In data set [2], the “liver microsomal stability (in words)” value was “moderate-high stability”. Besides, in [3], the “blood counts (in words)” value is “some leukopenia”; the “body weight (in words)” value is listed as “No weight loss”; the “bone marrow suppression (in words)” value was “no bone marrow suppression”; the “renal and liver function (in words)” value is listed as “unaffected”. For the same compound, in data set [4], the “Cmax vs DON (in words)” value was “reduces Cmax” and the “tumor to gut ratio vs DON (in words)” value is given as “enhances tumor to gut ratio”. Further, in the data set with EL4 mouse lymphoma, the “antitumor efficacy against lymphoma (in words)” value is given as “cure lymphoma; also recorded: efficacious”. Besides, the “GI toxicity, jejunum-ileum histology (in words)” value in [5] was “causes less GI toxicity”.

With `[N-]=[N+]=CC(=O)CC[C@H](N)C(=O)O` [DON, 6-diazo-5-oxo-L-norleucine], the “flank GBM tumor size (in words)” value in the data set with U87 human glioma cells (0.8 mg/kg, i.p, q.d. days 1-6) is reported as “dramatic reduction in tumor size”. In addition, the “glutamine metabolism in tumor (endogenous glutamine accumulation)” value with U87 human glioma cells (0.8 mg/kg, i.p., 2 hours post-administration, flank GBM tumors) is reported as “inhibited glutamine metabolism”. Also, the “signs of toxicity (in words)” value in the data set on U87 human glioma cells (mice receiving DON 0.8 mg/kg, i.p, q.d.) is reported as “significant signs of toxicity”. The “macroscopic stomach toxicity (in words)” value in [6] (5 days of dosing) is “more severe stomach toxicity”. Moreover, in data set [6] (DON 1.6 mg/kg vs 38 1.5 mg/kg, i.v. 2 h/day for 5 days, equivalent PBMC exposure), the “adverse clinical signs (in words)” value is reported as “more adverse clinical signs; also recorded: more adverse clinical effects”. In addition, in the data set on melanoma, the “effect on melanoma growth (in words)” value is on record as “modest effect on inhibiting melanoma growth”. Moreover, the “antitumor efficacy against lymphoma (in words)” value in the data set with EL4 mouse lymphoma was “cure lymphoma; also recorded: markedly inhibits lymphoma growth; also recorded: efficacious”. In addition, in [7] (daily high dose treatment), the “blood counts (in words)” value is recorded as “pan-cytopenia” and the “body weight (in words)” value is “weight loss”. In [7] (high dose), the “renal and liver function (in words)” value is recorded as “unaffected”. Moreover, in [5], the “GI toxicity, jejunum-ileum histology (in words)” value is recorded as “significant inflammation”.
